Laboratory results from ChEMBL document CHEMBL5126517, “Structure-Activity Relationship in the Leucettine Family of Kinase Inhibitors” (J Med Chem, 2022).
Calls of active or inactive are those of the source.

Experiments:
[1] = molecular target: T1, Glycogen synthase kinase-3 (Sus scrofa, UniProt B2LUN4+I6LNT8); assay: Inhibition of porcine brain GSK-3alpha/beta using YRRAAVPPSPSLSRHSSPHQpSEDEEE as substrate incubated for 30 mins in presence of ATP by scintillation counting method; format: tissue-based
[2] = molecular target: Dual specificity protein kinase CLK4 (Mus musculus, UniProt O35493); assay: Inhibition of GST-fused mouse recombinant CLK4 expressed in Escherichia coli using GRSRSRSRSRSR peptide as substrate incubated for 30 mins in presence of ATP by scintillation counting method
Dual specificity protein kinase CLK4, sequence (O35493 whole entry, the tested form may be a part): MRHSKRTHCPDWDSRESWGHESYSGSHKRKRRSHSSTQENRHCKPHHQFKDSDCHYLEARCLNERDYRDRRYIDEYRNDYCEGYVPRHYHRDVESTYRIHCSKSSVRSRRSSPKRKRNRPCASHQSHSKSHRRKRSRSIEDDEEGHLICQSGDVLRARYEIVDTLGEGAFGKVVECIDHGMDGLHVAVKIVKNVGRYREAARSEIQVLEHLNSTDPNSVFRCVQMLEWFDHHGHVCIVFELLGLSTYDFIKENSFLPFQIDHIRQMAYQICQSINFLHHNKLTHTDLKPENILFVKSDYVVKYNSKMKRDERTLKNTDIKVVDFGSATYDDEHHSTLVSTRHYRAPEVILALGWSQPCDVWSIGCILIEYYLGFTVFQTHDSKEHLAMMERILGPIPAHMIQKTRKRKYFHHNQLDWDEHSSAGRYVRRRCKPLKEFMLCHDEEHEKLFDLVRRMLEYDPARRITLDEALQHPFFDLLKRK

[3] = molecular target: Dual specificity protein kinase CLK1 (Mus musculus, UniProt P22518); assay: Inhibition of GST-fused mouse recombinant CLK1 expressed in Escherichia coli using GRSRSRSRSRSR peptide as substrate incubated for 30 mins in presence of ATP by scintillation counting method
Dual specificity protein kinase CLK1, sequence (P22518 whole entry, the tested form may be a part): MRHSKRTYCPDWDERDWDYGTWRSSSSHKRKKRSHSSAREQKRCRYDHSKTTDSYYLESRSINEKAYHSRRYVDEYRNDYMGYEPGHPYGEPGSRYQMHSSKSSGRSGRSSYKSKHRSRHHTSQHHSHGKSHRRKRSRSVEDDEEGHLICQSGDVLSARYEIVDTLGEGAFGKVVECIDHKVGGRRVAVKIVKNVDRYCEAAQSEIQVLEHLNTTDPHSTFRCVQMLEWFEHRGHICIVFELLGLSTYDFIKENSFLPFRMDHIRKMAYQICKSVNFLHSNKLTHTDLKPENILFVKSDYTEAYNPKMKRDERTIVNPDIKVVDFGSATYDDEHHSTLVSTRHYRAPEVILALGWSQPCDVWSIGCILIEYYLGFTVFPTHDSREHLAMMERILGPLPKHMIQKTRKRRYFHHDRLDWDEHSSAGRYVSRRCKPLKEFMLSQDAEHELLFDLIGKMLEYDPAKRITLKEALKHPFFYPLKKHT

[4] = molecular target: Dual specificity protein kinase CLK2 (Mus musculus, UniProt O35491); assay: Inhibition of mouse recombinant GST-fused CLK2 expressed in Escherichia coli using GRSRSRSRSRSR peptide as substrate incubated for 30 mins in presence of ATP by scintillation counting method
Dual specificity protein kinase CLK2, sequence (O35491 whole entry, the tested form may be a part): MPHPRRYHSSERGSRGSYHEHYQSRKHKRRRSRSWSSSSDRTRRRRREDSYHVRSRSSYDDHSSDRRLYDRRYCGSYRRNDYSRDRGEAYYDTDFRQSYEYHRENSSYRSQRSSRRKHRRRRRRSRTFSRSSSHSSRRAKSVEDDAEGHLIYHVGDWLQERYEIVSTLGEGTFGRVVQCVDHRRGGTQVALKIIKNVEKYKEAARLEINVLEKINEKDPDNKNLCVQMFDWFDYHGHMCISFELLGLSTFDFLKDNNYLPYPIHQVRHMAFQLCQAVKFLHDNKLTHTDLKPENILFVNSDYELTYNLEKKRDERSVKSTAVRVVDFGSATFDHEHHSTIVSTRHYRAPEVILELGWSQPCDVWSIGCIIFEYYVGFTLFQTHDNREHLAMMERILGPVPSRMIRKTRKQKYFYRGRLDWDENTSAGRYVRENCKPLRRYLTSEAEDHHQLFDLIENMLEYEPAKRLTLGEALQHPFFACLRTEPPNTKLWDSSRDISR

[5] = molecular target: Dual specificity tyrosine-phosphorylation-regulated kinase 1A (Homo sapiens, UniProt Q13627); assay: Inhibition of GST-fused human recombinant DYRK1A expressed in Escherichia coli using GRSRSRSRSRSR peptide as substrate incubated for 30 mins in presence of ATP by scintillation counting method
[6] = molecular target: Dual specificity tyrosine-phosphorylation-regulated kinase 1B (Homo sapiens, UniProt Q9Y463)
Dual specificity tyrosine-phosphorylation-regulated kinase 1B, sequence (Q9Y463 whole entry, the tested form may be a part): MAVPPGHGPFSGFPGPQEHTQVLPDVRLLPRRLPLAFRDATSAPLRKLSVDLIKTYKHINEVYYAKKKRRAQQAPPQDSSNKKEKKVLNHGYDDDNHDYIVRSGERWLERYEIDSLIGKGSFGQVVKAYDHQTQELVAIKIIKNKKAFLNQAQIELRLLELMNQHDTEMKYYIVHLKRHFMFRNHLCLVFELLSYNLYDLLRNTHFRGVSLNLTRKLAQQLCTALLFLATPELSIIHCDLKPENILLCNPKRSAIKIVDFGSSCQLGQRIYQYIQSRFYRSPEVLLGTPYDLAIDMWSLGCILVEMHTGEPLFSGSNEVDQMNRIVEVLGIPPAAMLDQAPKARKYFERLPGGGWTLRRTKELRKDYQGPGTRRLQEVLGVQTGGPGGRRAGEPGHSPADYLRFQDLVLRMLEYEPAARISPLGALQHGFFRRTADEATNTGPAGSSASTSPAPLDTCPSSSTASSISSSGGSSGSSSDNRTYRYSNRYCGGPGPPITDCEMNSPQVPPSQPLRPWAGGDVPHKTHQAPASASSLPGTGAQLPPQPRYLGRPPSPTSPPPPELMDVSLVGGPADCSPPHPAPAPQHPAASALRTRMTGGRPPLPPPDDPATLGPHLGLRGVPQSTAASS

[7] = molecular target: T2, Dual specificity tyrosine-phosphorylation-regulated kinase 2 (Homo sapiens, UniProt Q92630); assay: Inhibition of GST-fused human recombinant DYRK2 expressed in Escherichia coli using GRSRSRSRSRSR peptide as substrate incubated for 30 mins in presence of ATP by scintillation counting method
T2 sequence (Q92630 whole entry): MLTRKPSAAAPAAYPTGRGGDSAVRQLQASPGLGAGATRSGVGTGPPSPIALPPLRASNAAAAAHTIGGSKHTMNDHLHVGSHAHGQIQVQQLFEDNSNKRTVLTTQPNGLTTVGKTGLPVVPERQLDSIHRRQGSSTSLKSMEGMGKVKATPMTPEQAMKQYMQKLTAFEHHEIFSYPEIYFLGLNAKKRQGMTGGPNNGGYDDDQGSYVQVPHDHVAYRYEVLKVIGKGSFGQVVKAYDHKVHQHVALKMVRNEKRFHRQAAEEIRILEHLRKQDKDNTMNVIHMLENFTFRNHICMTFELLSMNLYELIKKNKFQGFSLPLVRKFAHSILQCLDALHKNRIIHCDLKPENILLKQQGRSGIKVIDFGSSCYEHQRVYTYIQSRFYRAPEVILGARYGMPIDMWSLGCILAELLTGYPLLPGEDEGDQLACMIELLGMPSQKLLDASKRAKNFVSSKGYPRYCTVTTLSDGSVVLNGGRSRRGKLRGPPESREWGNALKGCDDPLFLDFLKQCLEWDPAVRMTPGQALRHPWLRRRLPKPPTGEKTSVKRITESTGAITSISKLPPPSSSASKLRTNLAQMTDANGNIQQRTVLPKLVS

[8] = molecular target: T3, Dual specificity tyrosine-phosphorylation-regulated kinase 3 (Homo sapiens, UniProt O43781); assay: Inhibition of GST-fused human recombinant DYRK3 expressed in Escherichia coli using GRSRSRSRSRSR peptide as substrate incubated for 30 mins in presence of ATP by scintillation counting method
T3 sequence (O43781 whole entry): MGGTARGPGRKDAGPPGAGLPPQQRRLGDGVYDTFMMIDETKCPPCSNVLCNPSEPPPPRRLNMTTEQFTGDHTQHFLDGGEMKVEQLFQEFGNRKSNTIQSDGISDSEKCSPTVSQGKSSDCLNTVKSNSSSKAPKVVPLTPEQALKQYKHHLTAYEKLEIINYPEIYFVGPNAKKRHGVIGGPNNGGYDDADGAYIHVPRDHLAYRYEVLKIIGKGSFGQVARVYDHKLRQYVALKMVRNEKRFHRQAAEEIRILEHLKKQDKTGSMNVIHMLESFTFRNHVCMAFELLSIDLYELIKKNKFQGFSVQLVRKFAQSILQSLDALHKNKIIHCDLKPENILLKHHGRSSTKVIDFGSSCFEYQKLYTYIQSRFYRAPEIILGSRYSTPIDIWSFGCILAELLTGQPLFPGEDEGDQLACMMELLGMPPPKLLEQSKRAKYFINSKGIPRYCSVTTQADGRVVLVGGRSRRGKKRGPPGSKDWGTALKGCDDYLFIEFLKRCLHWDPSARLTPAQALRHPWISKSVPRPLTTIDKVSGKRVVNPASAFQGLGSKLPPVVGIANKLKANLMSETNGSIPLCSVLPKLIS

[9] = molecular target: Serine/threonine-protein kinase pim-1 (Homo sapiens, UniProt P11309); assay: Inhibition of human recombinant Pim1 expressed in Escherichia coli using histone H1 as substrate incubated for 30 mins in presence of ATP by scintillation counting method
Serine/threonine-protein kinase pim-1, sequence (P11309 whole entry): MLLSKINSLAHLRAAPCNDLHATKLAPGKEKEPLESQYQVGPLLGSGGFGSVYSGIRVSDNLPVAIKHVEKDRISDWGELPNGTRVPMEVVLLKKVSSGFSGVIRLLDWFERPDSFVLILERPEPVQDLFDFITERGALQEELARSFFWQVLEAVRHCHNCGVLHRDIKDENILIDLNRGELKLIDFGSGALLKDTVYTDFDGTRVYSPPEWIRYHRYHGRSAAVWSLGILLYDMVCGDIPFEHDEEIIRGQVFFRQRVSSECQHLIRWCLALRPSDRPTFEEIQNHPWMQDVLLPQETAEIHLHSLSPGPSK

[10] = tested on: HT-22; assay: Neuroprotective activity against glutamate-induced cell death in mouse HT-22 cells treated for 24 hrs by MTS assay; format: functional, cell-based; conditions: HT-22, 24 h
[11] = tested on: U2OS; assay: Induction of PI3K/mTor-dependent autophagy in human U2OS cells assessed as number of LC3 foci per cell at 10 uM measured after 4 hrs; format: cell-based; conditions: filed as activator
[12] = molecular target: T4, Cannabinoid receptor 1 (Homo sapiens, UniProt P21554); assay: Antagonist activity at CP-55940-activated CB1 receptor (unknown origin) at 10 uM by beta-arrestin assay relative to control; format: functional; design: scale not given: the % may be the effect or the level left
T4 sequence (P21554 whole entry): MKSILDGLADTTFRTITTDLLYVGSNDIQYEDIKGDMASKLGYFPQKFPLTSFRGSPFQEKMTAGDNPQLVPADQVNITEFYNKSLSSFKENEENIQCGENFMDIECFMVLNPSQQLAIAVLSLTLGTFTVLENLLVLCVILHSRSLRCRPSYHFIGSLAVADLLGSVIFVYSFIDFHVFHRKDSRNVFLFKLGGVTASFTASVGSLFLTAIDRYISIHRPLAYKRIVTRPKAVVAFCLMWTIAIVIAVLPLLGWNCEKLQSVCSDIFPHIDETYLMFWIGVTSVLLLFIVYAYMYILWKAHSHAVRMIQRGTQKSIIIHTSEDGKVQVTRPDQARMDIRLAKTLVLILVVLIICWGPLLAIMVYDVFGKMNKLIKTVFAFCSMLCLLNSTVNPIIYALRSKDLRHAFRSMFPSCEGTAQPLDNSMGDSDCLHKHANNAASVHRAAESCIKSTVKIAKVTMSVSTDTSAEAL

[13] = molecular target: T4, Cannabinoid receptor 1; assay: Antagonist activity at CP-55940-activated CB1 receptor (unknown origin) by beta-arrestin assay; format: functional
[14] = Neurotoxicity against mouse HT-22 cells assessed as cell survival at 10 uM treated for 24 hrs by MTS assay; format: toxicity, cell-based; conditions: ht-22, 24 h
[15] = tested on: Mus musculus; assay: Reduction in phosphorylated Tau Thr212 residue in Tg(Dyrk1a) mutant C57BL/6J mouse brain dosed at 20 mg/kg/day, ip for 19 days by western blot analysis; format: functional, organism-based; conditions: time 19.0 day
[16] = molecular target: T4, Cannabinoid receptor 1; assay: […] allosteric modulation of CB1 receptor (unknown origin) expressed in HEK293 cell membrane assessed as inhibition of CP-55940-induced [35S]-GTPgammaS binding at 10 uM in presence of GDP by liquid scintillation counting method; format: functional, cell membranes; conditions: DDE = dose-dependent effect
[17] = molecular target: Casein kinase 2 (Homo sapiens, UniProt P67870+P68400+P19784+Q8NEV1); assay: Inhibition of human recombinant CK2 using RRRDDDSDDD peptide as substrate incubated for 30 mins in presence of ATP by scintillation counting method; format: protein assay
[18] = Neurotoxicity against mouse HT-22 cells assessed as cell survival treated for 24 hrs by MTS assay; format: toxicity, cell-based
[19] = tested on: HT-22; assay: Modulation of CLK1 pre-mRNA splicing in mouse HT-22 cells assessed as inclusion of CLK1 exon 4 by measuring change in threshold cycle at 10 uM measured after 4 hrs by real time PCR analysis; format: cell-based; conditions: filed as modulator
[20] = tested on: HT-22; assay: Modulation of CLK1 pre-mRNA splicing in mouse HT-22 cells assessed as maximal effect of CLK1 exon 4 inclusion measured after 3 hrs by qPCR analysis; format: functional, cell-based
[21] = Reduction in phosphorylated Tau Thr212 residue in wild-type C57BL/6J mouse brain dosed at 20 mg/kg/day, ip for 19 days by western blot analysis; format: toxicity, organism-based; conditions: in vivo, 456 h, time 19 day
[22] = tested on: HT-22; assay: Neuroprotective activity against glutamate-induced cell death in mouse HT-22 cells at 10 uM incubated for 24 hrs by phase contrast microscopy; format: functional, cell-based
[23] = tested on: HT-22; assay: Induction of PI3K/mTor-dependent autophagy in mouse HT-22 cells assessed as number of LC3 foci per cell at 10 uM incubated for 24 hrs using Lamp-1 staining based immunofluorescence microscopy; conditions: filed as activator
[24] = tested on: HT-22; assay: Induction of PI3K/mTor-dependent autophagy in mouse HT-22 cells assessed as number of LC3 foci per cell at 10 uM incubated for 24 hrs using Anti-LC3 staining based immunofluorescence microscopy; conditions: filed as activator
[25] = molecular target: T4, Cannabinoid receptor 1; assay: Displacement of [3H]-CP55940 from CB1 receptor (unknown origin) expressed in HEK293 cell membrane assessed as dissociation constant at 10 uM by liquid scintillation counting method; format: cell membranes; conditions: filed as modulator
[26] = Neurotoxicity against mouse HT-22 cells assessed as cell survival at 20 uM treated for 24 hrs by MTS assay; format: toxicity, cell-based; conditions: ht-22, 24 h
[27] = tested on: HT-22; conditions: Mus musculus, filed as modulator, dose 10.0 µM, time 6.0 hrs
[28] = molecular target: Dual specificity protein kinase CLK3 (Mus musculus, UniProt O35492); assay: Inhibition of GST-fused mouse recombinant CLK3 expressed in Escherichia coli using GRSRSRSRSRSR peptide as substrate incubated for 30 mins in presence of ATP by scintillation counting method
Dual specificity protein kinase CLK3, sequence (O35492 whole entry, the tested form may be a part): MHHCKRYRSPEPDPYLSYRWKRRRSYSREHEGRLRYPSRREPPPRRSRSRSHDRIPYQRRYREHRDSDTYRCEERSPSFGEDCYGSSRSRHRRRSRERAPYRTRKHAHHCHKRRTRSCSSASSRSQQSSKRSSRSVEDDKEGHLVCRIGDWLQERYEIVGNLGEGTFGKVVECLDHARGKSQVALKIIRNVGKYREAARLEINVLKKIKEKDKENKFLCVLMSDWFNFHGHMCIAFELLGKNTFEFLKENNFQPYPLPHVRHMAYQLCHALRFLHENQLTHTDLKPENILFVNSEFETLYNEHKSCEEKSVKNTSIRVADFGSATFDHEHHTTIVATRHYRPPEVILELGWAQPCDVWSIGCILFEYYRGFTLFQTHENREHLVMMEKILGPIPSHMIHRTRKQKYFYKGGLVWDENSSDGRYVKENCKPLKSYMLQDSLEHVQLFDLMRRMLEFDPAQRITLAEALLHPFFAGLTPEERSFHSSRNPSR

[29] = Drug metabolism in human liver microsomes assessed as GSH reduction metabolite at 50 uM incubated for 60 mins in presence of 13C2,15N-GSH by LC-MS/MS analysis; format: ADME, Microsome; conditions: 1 h
[30] = molecular target: T1, Glycogen synthase kinase-3; assay: Inhibition of porcine brain GSK-3alpha/beta at 10 uM using YRRAAVPPSPSLSRHSSPHQpSEDEEE as substrate incubated for 30 mins in presence of ATP by scintillation counting method; format: tissue-based

| SMILES | IC50 [1] [µM] | IC50 [2] [µM] | IC50 [3] [µM] | IC50 [4] [µM] | IC50 [5] [µM] | IC50 [6] [µM] | IC50 [7] [µM] | IC50 [8] [µM] | IC50 [9] [µM] | EC50 [10] [µM] | Activity [11] | Activity ([12]; filed as antagonist) [%] | IC50 [13] [µM] | Activity [16] | IC50 [17] [µM] | Kb [25] [µM] | Activity [26] | Activity [12] [%] | other results |
| --- | --- | --- | --- | --- | --- | --- | --- | --- | --- | --- | --- | --- | --- | --- | --- | --- | --- | --- | --- |
| COc1cc(/C=C2\N=C(Nc3ccc(N4CCCCC4)cc3)NC2=O)ccc1O | > 10 | 1.2 | 0.75 | > 10 | 0.28 | 0.41 | 0.41 | 0.3 | 6.3 | 1.35 | 10.9 | 84.1 | 0.297 |  |  |  |  |  | Activity [14]: Non-Toxic |
| O=C1NC(Nc2ccccc2)=N/C1=C\c1ccc2c(c1)OCO2 | 0.6 |  |  |  |  |  |  |  |  | 6.02 | 11.6 | 96.8 |  | Dde | 0.51 | 2.2 | Non-Toxic |  | Activity [15]: Active; IC50 at 24 h [18]: > 20 µM; Activity ([11]; tested as the 2H-labelled form): 7.3; deltaCT [19]: 8.18; deltaCT ([19]; tested as the 2H-labelled form): 7.71; Activity ([12]; filed as antagonist, tested as the 2H-labelled form): 92.7%; Activity [20]: Active; Activity [21]: Non-Toxic; Activity [22]: Active; Activity [23]: Active; Activity [24]: Active; deltaCT [27]: 8.18 |
| COc1cc(/C=C2\N=C(Nc3ccccc3)NC2=O)ccc1O | 1.1 | 0.023 | 0.021 | 0.14 | 0.07 | 0.062 | 0.033 | 0.12 | 0.18 | 1.28 | 11.7 |  | 4.7 |  | 0.62 |  |  | 1.6 | IC50 [28]: 0.61 µM; IC50 at 24 h [18]: > 20 µM; Activity [23]: Active; Activity [24]: Active |
| O=C1NC(Nc2ccccc2)=N/C1=C\c1ccc2c(c1)OCCCO2 |  | > 10 | > 10 |  |  | > 10 | > 10 |  | > 10 | 12.5 | 5.6 | 89.3 |  | Dde |  | 1.2 | Non-Toxic |  |  |
| COc1cc(/C=C2\N=C(Nc3ccc(N4CCN(C)CC4)cc3)NC2=O)ccc1O | 0.2 |  |  |  |  |  |  |  |  | > 20 | 22 |  |  |  |  |  | Non-Toxic | 14.3 | Drug metabolism [29]: Metabolite_Notdetected |
| O=C1N=C(Nc2ccccc2)S/C1=C\c1ccc2c(c1)OCO2 |  | 1.2 | 0.8 | > 10 | 10 | 0.61 | > 10 |  | > 10 |  | 5.9 |  |  |  | 2.5 |  |  | -5.9 | IC50 [28]: 0.43 µM; IC50 [30]: 2.5 µM; EC50 at 24 h [18]: > 20 µM; deltaCT [19]: -0.09 |
| O=C1NC(Nc2ccc(N3CCCCC3)cc2)=N/C1=C\c1ccc2c(c1)OCO2 | > 10 | 1.5 | 4.2 | > 10 | 0.7 | 2.1 | 0.23 | > 10 |  | 0.66 | 11.4 | 81.7 | 0.0913 | Dde |  | 3.3 | Non-Toxic |  |  |
